We go through one substance from patent publication US20110245323A1, “RIG-Like Helicase Innate Immunity Inhibits VEGF-Induced Tissue Responses” (Yale University, priority 2006, published 2011).

In this test the test system is MAVS. Nature of the test: Poly(I:C) effects in MAVS null mice. In kind it is in vivo, mouse. An excerpt: TLR3^−/−-mice were a gift from Dr. Richard A. Flavell (Yale University), MAVS null mice were a gift from Dr Zijian J. Chen (U of Texas Southwestern) (Sun et al., 2006, Immunity 24:633-642), double stranded RNA-dependent protein kinase null mutant mice (PKR^−/−) were a gift from Dr. Bryan R. G. Williams (Cleveland Clinic Foundation) (Yang et al., 1995, Embo J 14:6095-6106) and IFNAR1 null mice were obtained from Dr. Richard Enelow (Dartmouth). These mice were bred with the VEGF Tg+ mice to generate transgenic mice with wild type (+/+) or null (−/−) TLR3, MAVS, PKR or IFNAR1 loci. Thus, in each given experiment, the effects in transgene negative (Tg−) and transgenic (Tg+) mice with WT and null TLR3, MAVS, PKR or IFNAR1 loci were compared.
To define the effects of Poly(I:C) a number of protocols were employed. In most experiments, a pretreatment-2 week protocol was employed. In these experiments, WT and Tg+ mice were treated with Poly(I:C) (30 μg in 50 lambda unless otherwise indicated; Amersham Biosciences, N.J.) or vehicle control via nasal aspiration and transgene activation was accomplished via the administration of dox (0.5 mg/ml) in the animal's drinking water 24 hours later. The Poly(I:C) was administered every other day and the dox was administered continuously for up to 2 weeks.
OVA sensitization (with alum) and aerosol OVA challenge were undertaken as previously described (Lee et al., 2008, Am J Respir Cell Mol Biol 39:739-746; Lee et al., 2009, J Exp Med 206:1149-1166). The responses in mice that had been treated with Poly(I:C) or vehicle 24 hours before the aerosol challenge were compared. The BAL and tissue responses were evaluated 24 hours after antigen challenge.

Consider “polyinosinic-polycytidylic acid [Poly(I:C)]”, for which the “ability to inhibit VEGF-induced angiogenic, edema, inflammatory and mucus responses in MAVS deficient animals” value (30 μg pretreatment, 2 weeks) is “abrogated”. Moreover, the “induction of Type I IFNs in mice with null MAVS loci” value (BAL IFN-α and IFN-β) is on record as “significantly ameliorated”. The “inhibitory effects on OVA-induced inflammation in MAVS null animals” value (OVA sensitization and challenge) was “abrogated”.
